# Source: publication PMC10290043, “Pharmacokinetics, safety, and antitumor activity of talazoparib monotherapy in Chinese patients with advanced solid tumors” (Investigational New Drugs, 2023)
# “Also recorded” adds a separate entry of the source.
# How the values were obtained:
# clinical = details: human, in vivo, po, 1 mg
# Protocol: A single dose of talazoparib 1 mg was administered orally on Day –9. From Cycle 1 Day 1, patients received talazoparib 1 mg QD orally on a continuous basis at approximately the same time each day (preferably in the morning) until disease progression, death, unacceptable toxicity, or withdrawal of consent. Dose interruptions or reductions were not required unless toxicity persisted at grade 2 for ≥7 days. Daily dosing was paused for grade ≥3 hematologic toxicities. Supportive care including blood products was allowed as appropriate per local guidance. To minimize any drug-drug interaction effects relating to talazoparib exposure and potential alteration to efficacy, co-medication with P-glycoprotein (P-gp) inhibitors and inducers was prohibited for Cycle 1 when intensive PK assessments were scheduled after both single-dose and multiple-dose talazoparib administrations. After Cycle 1, only potent P-gp inhibitors were prohibited to accommodate more co-medication options.
# To assess the single-dose PK profile, patients took talazoparib on Day –9 of a 9-day (216 h) lead-in period; blood samples were collected at pre-dose and at 0.5, 1, 2, 4, 8, 24, 48, 96, 168, and 216 h post-dose. For the steady-state PK profile, serial samples after multiple doses of talazoparib were collected on Day 22 of the first cycle at pre-dose and at 0.5, 1, 2, 4, 8, and 24 h post-dose. Prior to serial PK sampling (Cycle 1 Day –9, Cycle 1 Day 22), patients were required to fast for at least 8 h before dosing and they had to continue fasting for 2 h after dosing to control the variability due to food effect on Cmax. For the other PK sampling points, talazoparib could have been taken with or without food. On clinic visit days, talazoparib was administered after completion of a pre-dose blood sampling for PK and assessments. Blood samples of approximately 3 mL, to provide a minimum of 1.5 mL plasma, for measurement of talazoparib concentrations were collected.
# Talazoparib PK parameters were calculated for each patient and each treatment, as applicable, using non-compartmental analysis of concentration-time data. Summary statistics were calculated by setting concentration values below the lower limit of quantification to zero.
# [1] = Safety: treatment-emergent adverse events, NCT04635631; format: in vivo, human; details: for Any AE: safety population N=15, 1 mg QD
# Description: AE reporting included data up to 28 days after last dose of study drug or to start of new anticancer drug therapy Day -1 (whichever came first). For AEs, Medical Dictionary for Regulatory Activities (MedDRA), version 24.0, coding was applied.
# All patients who had received at least 1 dose of talazoparib were included in the safety and efficacy analysis sets. All treated patients with at least 1 PK concentration in the single-dose and/or multiple-dose PK part were included in the PK concentration analysis set, and all treated patients with at least 1 of the PK parameters of primary interest in the single-dose and/or multiple-dose PK part were included in the PK parameter analysis set. All patients in the PK parameter analysis set who completed both the single-dose PK and multiple-dose PK parts without major protocol deviations were included in the PK evaluable analysis set.
# solid tumors = test system: solid tumors; parameters: method as in PMID 34160752; details: molecularly unselected Japanese patients with solid tumors; cited from earlier work
# [2] = parameters: method as in PMID 35907135; details: 19 Japanese patients with germline BRCA-mutated advanced breast cancer; cited from earlier work
# [3] = test system: advanced breast cancer and a germline BRCA alteration; parameters: method as in PMID 30110579; details: EMBRACA, cited from earlier work
smiles,measurement,setting,value
Cn1ncnc1[C@H]1c2n[nH]c(=O)c3cc(F)cc(c23)N[C@@H]1c1ccc(F)cc1 [talazoparib],AUC,clinical,86.5 ng·h/mL
same,AUC(0-inf),clinical,208 ng·h/mL
same,AUC(0-t),clinical,172 ng·h/mL
same,Cmax,clinical,8.51 ng/mL
same,Tmax,clinical,1.9 h
same,Vd/F,clinical,457 L
same,half-life,clinical,67 ± 11.8 h
same,Patients with 1 or more dose reduction due to treatment-related AEs,[1]; 3/15 patients,Twenty percent
same,Any-grade treatment-related TEAE: anemia,[1]; N=15,46.7%
same,Any-grade treatment-related TEAE: decreased lymphocyte count,[1]; N=15,33.3%
same,Any-grade treatment-related TEAE: decreased neutrophil count,[1]; N=15,46.7%
same,Any-grade treatment-related TEAE: decreased platelet count,[1]; N=15,33.3%
same,Any-grade treatment-related TEAE: decreased white blood cell count,[1]; N=15,46.7%
same,Any-grade treatment-related TEAE: elevated alanine aminotransferase,[1]; N=15,33.3%
same,Any-grade treatment-related TEAE: elevated aspartate aminotransferase,[1]; N=15,33.3%
same,Patients permanently discontinued because of treatment-related decreased neutrophil count,[1]; N=15,6.7%
same,Patients with dose interruptions due to all-causality AEs,[1]; N=15,20.0%
same,Patients with dose interruptions due to treatment-related AEs,[1]; N=15,13.3%
same,Patients with grade 3 treatment-related TEAEs,[1]; N=15,20%
same,Patients with grade 4 treatment-related TEAEs,[1]; N=15,13.3%
same,Patients with serious all-causality TEAEs,[1]; N=15,13.3%
same,Patients with serious treatment-related TEAEs,[1]; N=15,13.3%
same,Treatment-related grade 3 or 4 TEAE: decreased neutrophil count,[1]; N=15,20%
same,Treatment-related grade 3 or 4 TEAE: decreased platelet count,[1]; N=15,20%
same,Patients with grade 3–4 treatment-related AEs,"[1]; N=15, in words",One-third
same,Treatment-related grade 3 or 4 TEAE: anemia,"[1]; N=15, no grade 4",20%
same,Treatment-related grade 3 or 4 TEAE: hyponatremia,"[1]; N=15, no grade 4",6.7%
same,Treatment-related grade 3 or 4 TEAE: neutropenia,"[1]; N=15, no grade 4",6.7%
same,Grade 5 TEAEs,"[1]; all-causality or treatment-related, N=15",No grade 5 all-causality or treatment-related TEAEs; also recorded: no grade 5 TEAEs
same,AEs leading to discontinuation,"[1]; all-causality, N=15",1 (6.7) n (%)
same,AEs leading to dose interruption,"[1]; all-causality, N=15",3 (20.0) n (%)
same,AEs leading to dose reduction,"[1]; all-causality, N=15",3 (20.0) n (%)
same,Grade 3 or 4 AE,"[1]; all-causality, N=15",9 (60.0) n (%)
same,Grade 3 or 4 AE: Anemia,"[1]; all-causality, N=15",3 (20.0) n (%)
same,Grade 3 or 4 AE: Gamma-glutamyltransferase increased,"[1]; all-causality, N=15",4 (26.7%) n (%)
same,Grade 3 or 4 AE: Neutrophil count decreased,"[1]; all-causality, N=15",3 (20.0) n (%)
same,Grade 3 or 4 AE: Platelet count decreased,"[1]; all-causality, N=15",3 (20.0) n (%)
same,Grade 5 AE (Death due to AE),"[1]; all-causality, N=15",0 n (%)
same,Patients with any SAE,"[1]; all-causality, N=15",2 (13.3) n (%)
same,SAE: Anemia,"[1]; all-causality, N=15",1 (6.7) n (%)
same,SAE: Hypernatremia,"[1]; all-causality, N=15",1 (6.7) n (%)
same,SAE: Hyponatremia,"[1]; all-causality, N=15",1 (6.7) n (%)
same,SAE: Neutrophil count decreased,"[1]; all-causality, N=15",1 (6.7) n (%)
same,SAE: Platelet count decreased,"[1]; all-causality, N=15",1 (6.7) n (%)
same,Any AE,[1]; all-causality,14 (93.3) n (%)
same,Patients with all-causality TEAEs,[1]; safety population N=15,93.3%
same,Patients with treatment-related TEAEs,[1]; safety population N=15,86.7%
same,AEs leading to discontinuation,"[1]; treatment-related, N=15",1 (6.7) n (%)
same,AEs leading to dose interruption,"[1]; treatment-related, N=15",2 (13.3) n (%)
same,AEs leading to dose reduction,"[1]; treatment-related, N=15",3 (20.0) n (%)
same,Grade 3 or 4 AE,"[1]; treatment-related, N=15",5 (33.3) n (%)
same,Grade 3 or 4 AE: Anemia,"[1]; treatment-related, N=15",3 (20.0) n (%)
same,Grade 3 or 4 AE: Gamma-glutamyltransferase increased,"[1]; treatment-related, N=15",0 n (%)
same,Grade 3 or 4 AE: Neutrophil count decreased,"[1]; treatment-related, N=15",3 (20.0) n (%)
same,Grade 3 or 4 AE: Platelet count decreased,"[1]; treatment-related, N=15",3 (20.0) n (%)
same,Grade 5 AE (Death due to AE),"[1]; treatment-related, N=15",0 n (%)
same,Patients with any SAE,"[1]; treatment-related, N=15",2 (13.3) n (%)
same,SAE: Anemia,"[1]; treatment-related, N=15",1 (6.7) n (%)
same,SAE: Hypernatremia,"[1]; treatment-related, N=15",0 n (%)
same,SAE: Hyponatremia,"[1]; treatment-related, N=15",1 (6.7) n (%)
same,SAE: Neutrophil count decreased,"[1]; treatment-related, N=15",1 (6.7) n (%)
same,SAE: Platelet count decreased,"[1]; treatment-related, N=15",1 (6.7) n (%)
same,Any AE,[1]; treatment-related,13 (86.7) n (%)
same,Overall disease control rate,solid tumors,44.4%
same,Geometric mean Ctrough (steady-state trough concentrations),[2],3.346 ng/mL
same,Hazard ratio for disease progression or death,"[3]; versus standard chemotherapy, 95% CI 0.41–0.71, P < 0.001",0.54
same,Median progression-free survival,[3]; vs 5.6 months standard chemotherapy,8.6 months
